{
  "source": "ChEMBL document CHEMBL2074103",
  "about": "“Up-regulation of the multidrug resistance genes, Mrp1 and Mdr1b, and down-regulation of the organic anion transporter, Mrp2, and the bile salt transporter, Spgp, in endotoxemic rat liver” (Hepatology, 1998)",
  "format_in_all_cases": "functional, organism-based",
  "key": {"[1]": {"target": "T1, ATP-binding cassette sub-family C member 2 (Rattus norvegicus, UniProt Q63120)", "T1 sequence (Q63120 whole entry)": "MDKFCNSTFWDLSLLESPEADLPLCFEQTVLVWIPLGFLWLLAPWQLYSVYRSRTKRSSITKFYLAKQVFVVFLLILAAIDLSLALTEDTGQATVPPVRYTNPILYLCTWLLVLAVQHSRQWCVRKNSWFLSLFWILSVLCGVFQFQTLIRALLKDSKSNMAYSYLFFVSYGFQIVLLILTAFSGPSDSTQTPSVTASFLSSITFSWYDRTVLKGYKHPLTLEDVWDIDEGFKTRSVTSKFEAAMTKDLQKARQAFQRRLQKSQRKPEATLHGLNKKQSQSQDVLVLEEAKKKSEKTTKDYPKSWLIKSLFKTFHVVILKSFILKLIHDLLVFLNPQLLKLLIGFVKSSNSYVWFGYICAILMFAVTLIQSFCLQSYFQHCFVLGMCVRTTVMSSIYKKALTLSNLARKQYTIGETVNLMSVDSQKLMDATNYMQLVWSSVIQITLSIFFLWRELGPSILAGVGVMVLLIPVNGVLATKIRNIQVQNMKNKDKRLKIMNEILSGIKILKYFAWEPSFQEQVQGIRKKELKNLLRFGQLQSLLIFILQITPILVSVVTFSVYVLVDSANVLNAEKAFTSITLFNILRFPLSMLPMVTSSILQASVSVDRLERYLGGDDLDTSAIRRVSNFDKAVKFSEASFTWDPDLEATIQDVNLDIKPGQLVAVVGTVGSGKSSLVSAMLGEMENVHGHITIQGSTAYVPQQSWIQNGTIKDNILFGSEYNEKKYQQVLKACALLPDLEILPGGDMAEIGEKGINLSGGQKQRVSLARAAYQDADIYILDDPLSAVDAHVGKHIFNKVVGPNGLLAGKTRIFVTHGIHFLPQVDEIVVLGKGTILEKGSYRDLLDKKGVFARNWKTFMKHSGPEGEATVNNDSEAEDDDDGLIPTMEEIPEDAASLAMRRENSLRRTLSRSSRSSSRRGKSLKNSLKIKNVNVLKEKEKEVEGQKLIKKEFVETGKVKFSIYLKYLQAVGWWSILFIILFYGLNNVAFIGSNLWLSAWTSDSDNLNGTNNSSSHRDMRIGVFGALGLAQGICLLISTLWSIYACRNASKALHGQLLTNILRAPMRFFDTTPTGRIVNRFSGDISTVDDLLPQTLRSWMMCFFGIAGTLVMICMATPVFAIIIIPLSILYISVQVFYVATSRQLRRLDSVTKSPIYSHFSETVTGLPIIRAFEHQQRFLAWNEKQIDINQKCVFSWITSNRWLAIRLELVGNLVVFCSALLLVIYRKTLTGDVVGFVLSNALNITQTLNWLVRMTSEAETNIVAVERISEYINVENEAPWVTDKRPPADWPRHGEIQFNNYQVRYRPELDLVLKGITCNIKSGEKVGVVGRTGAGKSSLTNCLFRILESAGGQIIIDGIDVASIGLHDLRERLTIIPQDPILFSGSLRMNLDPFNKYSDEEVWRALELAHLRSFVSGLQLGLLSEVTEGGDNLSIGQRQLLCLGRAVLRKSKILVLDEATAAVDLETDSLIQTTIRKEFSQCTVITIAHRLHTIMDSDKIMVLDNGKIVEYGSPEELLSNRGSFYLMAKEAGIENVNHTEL", "assay": "(§1) TP_TRANSPORTER: Western in vivo, liver of Wistar rat"}, "[2]": {"target": "T2, Multidrug resistance-associated protein 1 (Rattus norvegicus, UniProt Q8CG09)", "T2 sequence (Q8CG09 whole entry)": "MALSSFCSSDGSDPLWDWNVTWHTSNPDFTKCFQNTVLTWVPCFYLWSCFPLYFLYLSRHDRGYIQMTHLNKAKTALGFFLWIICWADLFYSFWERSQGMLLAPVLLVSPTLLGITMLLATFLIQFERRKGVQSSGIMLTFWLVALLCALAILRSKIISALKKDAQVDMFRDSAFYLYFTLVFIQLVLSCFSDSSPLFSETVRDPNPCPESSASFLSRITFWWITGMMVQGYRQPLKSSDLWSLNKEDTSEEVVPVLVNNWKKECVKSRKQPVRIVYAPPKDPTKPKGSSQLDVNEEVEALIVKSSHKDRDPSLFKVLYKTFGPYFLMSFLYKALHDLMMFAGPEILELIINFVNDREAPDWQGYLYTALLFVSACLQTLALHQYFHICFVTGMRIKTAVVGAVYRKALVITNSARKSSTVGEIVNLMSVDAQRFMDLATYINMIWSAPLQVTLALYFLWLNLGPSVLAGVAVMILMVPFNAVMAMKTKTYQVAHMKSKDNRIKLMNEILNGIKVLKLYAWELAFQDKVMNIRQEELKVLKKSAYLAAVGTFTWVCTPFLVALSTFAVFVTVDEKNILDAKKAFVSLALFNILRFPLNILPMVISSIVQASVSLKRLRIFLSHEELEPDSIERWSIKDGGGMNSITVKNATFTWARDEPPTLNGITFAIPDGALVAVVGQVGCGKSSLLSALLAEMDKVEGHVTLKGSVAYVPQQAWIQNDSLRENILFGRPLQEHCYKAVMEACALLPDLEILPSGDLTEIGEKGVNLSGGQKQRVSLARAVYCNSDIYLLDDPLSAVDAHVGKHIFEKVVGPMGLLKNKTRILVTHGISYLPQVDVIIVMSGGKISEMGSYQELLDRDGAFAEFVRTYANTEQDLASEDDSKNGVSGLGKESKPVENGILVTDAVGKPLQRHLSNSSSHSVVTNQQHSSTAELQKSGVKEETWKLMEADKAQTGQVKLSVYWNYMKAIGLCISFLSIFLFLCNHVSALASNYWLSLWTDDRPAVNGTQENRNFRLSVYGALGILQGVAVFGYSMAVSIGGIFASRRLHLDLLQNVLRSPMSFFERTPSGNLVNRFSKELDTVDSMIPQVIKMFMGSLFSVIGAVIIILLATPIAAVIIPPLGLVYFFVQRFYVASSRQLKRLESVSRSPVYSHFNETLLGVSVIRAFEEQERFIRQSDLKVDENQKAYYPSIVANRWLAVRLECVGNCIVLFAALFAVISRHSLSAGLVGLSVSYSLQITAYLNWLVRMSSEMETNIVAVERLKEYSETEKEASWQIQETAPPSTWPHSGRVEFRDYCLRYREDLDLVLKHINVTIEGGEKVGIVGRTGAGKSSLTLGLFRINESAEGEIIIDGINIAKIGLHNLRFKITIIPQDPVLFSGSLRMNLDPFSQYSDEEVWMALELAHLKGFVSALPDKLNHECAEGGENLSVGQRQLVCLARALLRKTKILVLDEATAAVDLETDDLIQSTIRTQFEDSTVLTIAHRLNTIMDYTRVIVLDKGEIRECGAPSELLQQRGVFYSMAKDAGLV", "assay": "as §1"}, "Bile salt export pump [3]": {"target": "T3, Bile salt export pump (Rattus norvegicus, UniProt O70127)", "T3 sequence (O70127 whole entry)": "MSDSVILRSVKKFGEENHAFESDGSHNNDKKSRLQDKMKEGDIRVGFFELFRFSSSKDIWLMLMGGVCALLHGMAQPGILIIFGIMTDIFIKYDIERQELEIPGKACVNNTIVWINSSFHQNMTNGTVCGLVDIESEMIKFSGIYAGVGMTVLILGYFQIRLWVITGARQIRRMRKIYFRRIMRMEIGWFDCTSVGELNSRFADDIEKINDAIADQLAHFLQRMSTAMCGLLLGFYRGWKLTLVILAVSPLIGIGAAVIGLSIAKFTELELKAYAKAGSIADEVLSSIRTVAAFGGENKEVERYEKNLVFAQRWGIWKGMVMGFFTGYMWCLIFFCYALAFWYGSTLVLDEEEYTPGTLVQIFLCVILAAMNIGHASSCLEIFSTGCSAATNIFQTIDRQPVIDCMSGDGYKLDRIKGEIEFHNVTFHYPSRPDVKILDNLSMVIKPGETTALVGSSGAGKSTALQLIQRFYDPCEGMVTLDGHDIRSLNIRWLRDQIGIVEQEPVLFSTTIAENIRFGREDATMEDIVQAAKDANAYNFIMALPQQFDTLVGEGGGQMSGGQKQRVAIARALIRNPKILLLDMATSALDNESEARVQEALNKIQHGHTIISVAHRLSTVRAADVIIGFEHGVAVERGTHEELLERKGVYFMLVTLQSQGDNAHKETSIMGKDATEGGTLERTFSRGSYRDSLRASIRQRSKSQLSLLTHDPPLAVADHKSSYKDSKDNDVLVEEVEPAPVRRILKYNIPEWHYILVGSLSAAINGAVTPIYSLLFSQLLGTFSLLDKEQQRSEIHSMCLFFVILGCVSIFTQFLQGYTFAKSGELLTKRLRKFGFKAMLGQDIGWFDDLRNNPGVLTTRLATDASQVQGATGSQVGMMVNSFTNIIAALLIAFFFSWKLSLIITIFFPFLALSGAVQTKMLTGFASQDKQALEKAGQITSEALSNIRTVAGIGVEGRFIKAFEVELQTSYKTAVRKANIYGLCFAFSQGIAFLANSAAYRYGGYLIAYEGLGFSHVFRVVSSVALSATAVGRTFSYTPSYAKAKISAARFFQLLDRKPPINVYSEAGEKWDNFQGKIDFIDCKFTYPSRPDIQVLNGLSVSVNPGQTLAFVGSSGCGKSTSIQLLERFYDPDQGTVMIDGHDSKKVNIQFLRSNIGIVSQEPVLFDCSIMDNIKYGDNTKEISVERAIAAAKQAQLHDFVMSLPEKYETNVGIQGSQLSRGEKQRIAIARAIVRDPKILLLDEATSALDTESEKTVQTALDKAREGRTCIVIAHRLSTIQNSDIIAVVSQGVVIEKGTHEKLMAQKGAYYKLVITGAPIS", "assay": "as §1"}, "[4]": {"target": "Multidrug resistance protein 1a (Rattus norvegicus) (UniProt Q6PSM0)", "sequence (Q6PSM0 as listed by the source)": "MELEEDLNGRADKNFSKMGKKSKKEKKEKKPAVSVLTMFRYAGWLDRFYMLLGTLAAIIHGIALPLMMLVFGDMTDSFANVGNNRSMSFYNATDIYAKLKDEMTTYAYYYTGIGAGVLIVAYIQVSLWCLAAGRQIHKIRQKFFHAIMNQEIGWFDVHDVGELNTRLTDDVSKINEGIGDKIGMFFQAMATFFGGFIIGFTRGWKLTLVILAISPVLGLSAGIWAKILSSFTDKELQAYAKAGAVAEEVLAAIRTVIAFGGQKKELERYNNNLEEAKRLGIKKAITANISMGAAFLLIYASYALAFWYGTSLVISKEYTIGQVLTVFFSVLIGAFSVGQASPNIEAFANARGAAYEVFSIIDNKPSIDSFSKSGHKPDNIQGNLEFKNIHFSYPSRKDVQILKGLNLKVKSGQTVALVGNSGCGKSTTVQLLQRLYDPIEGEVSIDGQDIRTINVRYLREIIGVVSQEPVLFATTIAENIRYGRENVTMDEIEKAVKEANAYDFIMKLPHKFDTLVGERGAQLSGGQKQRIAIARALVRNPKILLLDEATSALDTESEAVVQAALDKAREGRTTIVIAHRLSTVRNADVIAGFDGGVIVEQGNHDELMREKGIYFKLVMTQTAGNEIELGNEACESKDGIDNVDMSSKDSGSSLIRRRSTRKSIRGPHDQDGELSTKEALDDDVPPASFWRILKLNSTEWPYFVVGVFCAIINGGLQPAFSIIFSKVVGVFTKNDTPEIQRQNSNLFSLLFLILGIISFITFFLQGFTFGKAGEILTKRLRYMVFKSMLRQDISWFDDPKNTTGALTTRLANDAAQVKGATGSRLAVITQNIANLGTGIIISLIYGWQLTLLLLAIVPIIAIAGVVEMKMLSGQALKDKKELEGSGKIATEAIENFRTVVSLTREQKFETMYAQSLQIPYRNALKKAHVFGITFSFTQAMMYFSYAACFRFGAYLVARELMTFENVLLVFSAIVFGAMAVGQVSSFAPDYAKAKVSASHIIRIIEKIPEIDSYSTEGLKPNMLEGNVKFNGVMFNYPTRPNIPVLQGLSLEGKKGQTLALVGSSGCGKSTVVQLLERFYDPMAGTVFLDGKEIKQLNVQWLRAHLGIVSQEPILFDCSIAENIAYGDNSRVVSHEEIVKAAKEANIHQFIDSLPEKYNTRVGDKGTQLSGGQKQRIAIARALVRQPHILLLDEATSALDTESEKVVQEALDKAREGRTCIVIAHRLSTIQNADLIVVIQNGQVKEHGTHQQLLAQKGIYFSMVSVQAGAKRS", "assay": "as §1"}, "[5]": {"target": "T1, ATP-binding cassette sub-family C member 2", "assay": "(§2) TP_TRANSPORTER: RT-PCR in vivo, liver of Wistar rat"}, "[6]": {"target": "T2, Multidrug resistance-associated protein 1", "assay": "as §2"}, "Bile salt export pump [7]": {"target": "T3, Bile salt export pump", "assay": "as §2"}, "[8]": {"target": "ATP-dependent translocase ABCB1 (Rattus norvegicus, UniProt P43245)", "assay": "as §2"}},
  "data": [
    {"smiles": "CCCCCCCCCCCCCC(=O)OC(CCCCCCCCCCC)CC(=O)OC1C(NC(=O)CC(CCCCCCCCCCC)OC(=O)CCCCCCCCCCC)C(OC2CC(OC(=O)CC(O)CCCCCCCCCCC)C(NC(=O)CC(O)CCCCCCCCCCC)C(O)O2)OC(CO)C1OP(=O)(O)O", "note": "(stereo not drawn)", "values": [
      {"measurement": "Activity", "setting": "[1]", "value": "inducer [Decrease]"},
      {"measurement": "Activity", "setting": "[2]", "value": "inducer [+]"},
      {"measurement": "Activity", "setting": "Bile salt export pump [3]", "value": "inducer [Decrease]"},
      {"measurement": "Activity", "setting": "[4]", "value": "inducer [Decrease]"},
      {"measurement": "Activity", "setting": "[5]", "value": "inducer [Decrease]"},
      {"measurement": "Activity", "setting": "[6]", "value": "inducer [+]"},
      {"measurement": "Activity", "setting": "Bile salt export pump [7]", "value": "inducer [Decrease]"},
      {"measurement": "Activity", "setting": "[8]", "value": "inducer [+]"}
    ]}
  ]
}
